Laboratory results published in ChEMBL document CHEMBL1152528, “Synthesis and kinase inhibitory activity of novel substituted indigoids” (Bioorg Med Chem, 2009).

Key:
[1] = target: Cyclin-dependent kinase 5/CDK5 activator 1 (Homo sapiens, UniProt Q00535); assay: Inhibition of GST-fused CDK5/p25 expressed in Escherichia coli assessed as [gamma-33P]ATP incorporation after 10 mins by scintillation counting
[2] = Inhibition of Marthasterias glacialis CDK1/cyclin-B assessed as [gamma-33P]ATP incorporation after 10 mins by scintillation counting
[3] = Inhibition of porcine brain CK1 assessed as [gamma-33P]ATP incorporation after 10 mins by scintillation counting; set-up: species or system Sus scrofa
[4] = target: Glycogen synthase kinase-3 (Sus scrofa, UniProt B2LUN4+I6LNT8); assay: Inhibition of porcine brain GSK3alpha/beta assessed as [gamma-33P]ATP incorporation after 30 mins by scintillation counting
[5] = target: Dual specificity tyrosine-phosphorylation-regulated kinase 1A (Rattus norvegicus, UniProt Q63470); assay: Inhibition of GST-fused rat recombinant DYRK1A expressed in Escherichia coli assessed as [gamma-33P]ATP incorporation after 10 mins by scintillation counting
Huh-7 = assay: Antiproliferative activity against human HuH7 cells after 72 hrs by imaging analysis; assay type: functional, cell-based; conditions: Huh-7, 72 h
[6] = Antiproliferative activity against human NCI/ADR cells after 72 hrs by imaging analysis; assay type: functional, cell-based; conditions: NCI/ADR-RES
HCT-116 = assay: Antiproliferative activity against human HCT116 cells after 72 hrs by imaging analysis; assay type: functional, cell-based; conditions: HCT-116, 72 h
Caco-2 = assay: Antiproliferative activity against human Caco-2 cells after 72 hrs by imaging analysis; assay type: functional, cell-based; conditions: Caco-2, 72 h
[7] = Antiproliferative activity against human fibroblast after 72 hrs by imaging analysis; assay type: cell-based
PC-3 = assay: Antiproliferative activity against human PC3 cells after 72 hrs by imaging analysis; assay type: functional, cell-based; conditions: PC-3, 72 h

Sequence of Cyclin-dependent kinase 5/CDK5 activator 1 (Q00535 whole entry, the tested form may be a part): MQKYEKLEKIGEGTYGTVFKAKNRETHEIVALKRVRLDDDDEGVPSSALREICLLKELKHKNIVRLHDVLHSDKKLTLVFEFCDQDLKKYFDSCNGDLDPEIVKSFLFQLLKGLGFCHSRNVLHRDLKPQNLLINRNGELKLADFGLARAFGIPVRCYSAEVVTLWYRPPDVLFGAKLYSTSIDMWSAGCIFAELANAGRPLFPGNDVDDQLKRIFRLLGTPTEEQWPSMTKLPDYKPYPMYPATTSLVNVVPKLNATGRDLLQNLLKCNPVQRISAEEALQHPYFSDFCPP
Sequence of Cyclin-dependent kinase 5/CDK5 activator 1 (Q15078 whole entry, further chain, the tested form may be a part): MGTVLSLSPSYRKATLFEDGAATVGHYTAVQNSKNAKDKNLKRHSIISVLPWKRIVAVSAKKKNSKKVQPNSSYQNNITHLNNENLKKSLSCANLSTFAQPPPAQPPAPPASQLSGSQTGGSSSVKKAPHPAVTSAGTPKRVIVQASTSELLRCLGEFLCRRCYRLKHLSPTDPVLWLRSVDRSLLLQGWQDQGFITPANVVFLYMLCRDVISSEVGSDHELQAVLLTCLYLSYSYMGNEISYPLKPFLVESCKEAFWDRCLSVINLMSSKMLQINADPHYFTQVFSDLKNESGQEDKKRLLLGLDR

O=C1Nc2c(Br)cc([N+](=O)[O-])cc2/C1=C1/Nc2ccccc2C1=O
IC50 [1]: > 10 µM | IC50 [2]: > 10 µM | IC50 [3]: > 10 µM | IC50 [4]: > 10 µM | IC50 [5]: > 10 µM

O=C1Nc2cc([N+](=O)[O-])ccc2/C1=C1/Nc2ccccc2/C1=N\O
IC50 [1]: 0.12 µM | IC50 [2]: 0.18 µM | IC50 [3]: 0.6 µM | IC50 [4]: 0.04 µM

O=C1Nc2c(Br)cc([N+](=O)[O-])cc2/C1=C1/Nc2ccc(Br)cc2/C1=N\O
IC50 [1]: > 10 µM | IC50 [2]: > 10 µM | IC50 [3]: > 10 µM | IC50 [4]: > 10 µM | IC50 [5]: > 10 µM

O=C1Nc2c(Br)cc([N+](=O)[O-])cc2/C1=C1/Nc2ccccc2/C1=N\O
IC50 [1]: > 10 µM | IC50 [2]: > 10 µM | IC50 [3]: > 10 µM | IC50 [4]: > 10 µM | IC50 [5]: > 10 µM

Nc1ccc2c(c1)/C(=C1/Nc3ccccc3/C1=N\O)C(=O)N2
IC50 [1]: 0.15 µM | IC50 [2]: 0.1 µM | IC50 [3]: 0.13 µM | IC50 [4]: 0.36 µM | IC50 [5]: 4.2 µM

Nc1ccc2c(c1)NC(=O)/C2=C1\Nc2ccccc2\C1=N/O
IC50 [1]: 0.2 µM | IC50 [2]: 1 µM | IC50 [3]: 0.5 µM | IC50 [4]: 0.18 µM

O=C1Nc2c(Br)cc([N+](=O)[O-])cc2/C1=C1/Nc2ccc(Br)cc2C1=O
IC50 [1]: > 10 µM | IC50 [2]: > 10 µM | IC50 [3]: > 10 µM | IC50 [4]: > 10 µM | IC50 [5]: > 10 µM

Nc1ccc2c(c1)/C(=C1\C(=O)Nc3ccccc31)C(=O)N2 [(3'Z)-5-AMINOISOINDIGO]
IC50 (Huh-7): > 25 µM | IC50 [6]: 25 µM | IC50 (HCT-116): > 25 µM | IC50 (Caco-2): > 25 µM | IC50 [7]: > 25 µM | IC50 (PC-3): 25 µM

O=C1Nc2ccc([N+](=O)[O-])cc2/C1=C1/Nc2ccc(Br)cc2/C1=N/O
IC50 [1]: 0.05 µM | IC50 [2]: 0.16 µM | IC50 [3]: > 10 µM | IC50 [4]: 0.055 µM | IC50 [5]: > 10 µM

Nc1ccc2c(c1)/C(=C1/Nc3ccc(Br)cc3/C1=N\O)C(=O)N2
IC50 [1]: 1 µM | IC50 [2]: 0.41 µM | IC50 [3]: > 10 µM | IC50 [4]: 6.6 µM | IC50 [5]: > 10 µM

O=C1Nc2cc([N+](=O)[O-])ccc2/C1=C1/Nc2ccccc2C1=O
IC50 (Huh-7): > 25 µM | IC50 [6]: 2 µM | IC50 (HCT-116): 5 µM | IC50 [1]: > 10 µM | IC50 (Caco-2): 3 µM | IC50 [7]: > 25 µM | IC50 [2]: > 10 µM | IC50 (PC-3): 15 µM | IC50 [3]: > 10 µM | IC50 [4]: 60 µM

O=C1C(c2c(O)[nH]c3ccc([N+](=O)[O-])cc23)=Nc2ccccc21
IC50 [1]: 25 µM | IC50 [2]: 40 µM | IC50 [3]: > 10 µM | IC50 [4]: 19 µM | IC50 [5]: > 10 µM

Nc1ccc2c(c1)/C(=C1/Nc3ccccc3C1=O)C(=O)N2
IC50 (Huh-7): 6 µM | IC50 [6]: 20 µM | IC50 (HCT-116): 15 µM | IC50 [1]: 0.59 µM | IC50 (Caco-2): 2 µM | IC50 [7]: > 25 µM | IC50 [2]: 1.5 µM | IC50 (PC-3): 5 µM | IC50 [3]: 0.65 µM | IC50 [4]: 0.08 µM | IC50 [5]: 2.5 µM

O=C1Nc2ccccc2/C1=C1\C(=O)Nc2ccc([N+](=O)[O-])cc21
IC50 (Huh-7): > 25 µM | IC50 [6]: 25 µM | IC50 (HCT-116): > 25 µM | IC50 (Caco-2): > 25 µM | IC50 [7]: > 25 µM | IC50 (PC-3): > 25 µM

CC[C@H](CO)Nc1nc(NCc2ccccc2)c2ncn(C(C)C)c2n1 [SELICICLIB]
IC50 (Huh-7): 5 µM | IC50 [6]: 6 µM | IC50 (HCT-116): 5 µM | IC50 [7]: > 25 µM | IC50 (PC-3): 8 µM

CC(=O)Nc1ccc2c(c1)/C(=C1/Nc3ccccc3/C1=N\O)C(=O)N2
IC50 [1]: 0.16 µM | IC50 [2]: 0.088 µM | IC50 [3]: 0.4 µM | IC50 [4]: 0.35 µM | IC50 [5]: 15 µM

O=C1Nc2cc([N+](=O)[O-])ccc2/C1=C1/Nc2ccc(Br)cc2/C1=N\O
IC50 [1]: 0.3 µM | IC50 [2]: 7 µM | IC50 [3]: 18 µM | IC50 [4]: 0.7 µM

CC(=O)O[C@H]1C(=O)[C@@]2(C)[C@H]([C@H](OC(=O)c3ccccc3)[C@]3(O)C[C@H](OC(=O)[C@H](O)[C@@H](NC(=O)c4ccccc4)c4ccccc4)C(C)=C1C3(C)C)[C@]1(OC(C)=O)CO[C@@H]1C[C@@H]2O [PACLITAXEL]
IC50 (Huh-7): 0.008 µM | IC50 [6]: 0.004 µM | IC50 (HCT-116): < 0.0008 µM | IC50 (Caco-2): 0.02 µM | IC50 [7]: 0.03 µM | IC50 (PC-3): < 0.0008 µM

CC(=O)Nc1ccc2c(c1)/C(=C1/Nc3ccccc3C1=O)C(=O)N2
IC50 (Huh-7): 2 µM | IC50 [6]: 10 µM | IC50 (HCT-116): 2 µM | IC50 [1]: 0.018 µM | IC50 (Caco-2): 5 µM | IC50 [7]: > 25 µM | IC50 [2]: 0.05 µM | IC50 (PC-3): 2 µM | IC50 [3]: 8 µM | IC50 [4]: 0.0075 µM | IC50 [5]: 2.5 µM

Nc1ccc2c(c1)NC(=O)/C2=C1\Nc2ccccc2C1=O
IC50 (Huh-7): > 25 µM | IC50 [6]: 25 µM | IC50 (HCT-116): > 25 µM | IC50 [1]: 4 µM | IC50 (Caco-2): 5 µM | IC50 [7]: > 25 µM | IC50 [2]: 30 µM | IC50 (PC-3): 25 µM | IC50 [3]: 16 µM | IC50 [4]: 0.36 µM

O=Nc1c(-c2c(O)[nH]c3ccc([N+](=O)[O-])cc23)[nH]c2ccccc12
IC50 [1]: 0.006 µM | IC50 [2]: 0.019 µM | IC50 [3]: > 10 µM | IC50 [4]: 0.0021 µM | IC50 [5]: 1.3 µM

CC(=O)Nc1ccc2c(c1)/C(=C1/Nc3ccc(Br)cc3/C1=N\O)C(=O)N2
IC50 [1]: 3.3 µM | IC50 [2]: 1.4 µM | IC50 [3]: > 10 µM | IC50 [4]: 40 µM | IC50 [5]: > 10 µM

Nc1ccc2c(c1)/C(=C1/Nc3ccc(Br)cc3C1=O)C(=O)N2
IC50 [1]: 0.55 µM | IC50 [2]: 0.6 µM | IC50 [3]: 2.7 µM | IC50 [4]: 0.44 µM | IC50 [5]: > 10 µM

O=C1Nc2cc([N+](=O)[O-])ccc2/C1=C1/Nc2ccc(Br)cc2C1=O
IC50 [1]: > 10 µM | IC50 [2]: > 10 µM | IC50 [3]: > 10 µM | IC50 [4]: > 10 µM

CC(=O)Nc1ccc2c(c1)/C(=C1/Nc3ccc(Br)cc3C1=O)C(=O)N2
IC50 [1]: 0.11 µM | IC50 [2]: 0.055 µM | IC50 [3]: > 10 µM | IC50 [4]: 0.073 µM | IC50 [5]: 7.3 µM

O=C1Nc2ccc([N+](=O)[O-])cc2/C1=C1/Nc2ccc(Br)cc2C1=O
IC50 [1]: > 10 µM | IC50 [2]: > 10 µM | IC50 [3]: > 10 µM | IC50 [4]: > 10 µM | IC50 [5]: > 10 µM
